The results in this text go back to ChEMBL document CHEMBL1201862, “PubChem BioAssay data set” (2004).

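Where inhibition never reached the appropriate level, the endpoint shown equals the highest concentration tested. Otherwise, values were interpolated linearly from a five-concentration, 48-hour dose response in 96-well plates. GI50 is the concentration that inhibits growth by half.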 Active and inactive are the calls of the source. No stated cut-off is given here; in the data, active = GI50 up to about 1.1 µM and inactive = higher. Some results are limits rather than exact numbers.

Test systems include SNB-75; 786-0; Malme-3M; RXF 393; HT-29; UACC-257; SK-MEL-28; SF-295; HOP-92; IGROV-1; A498; M14; MDA-MB-231; MCF7; NCI-H460; NCI/ADR-RES; HL-60; CCRF-CEM.
Holding throughout (experiment): NCI tumour cell line growth inhibition, 48 h

Take `O=c1[nH]c(C2CCCCC2)nc2cc(Cl)ccc12`: the GI50 with SNB-75 was 55.6 µM (inactive); with 786-0, 70 µM (inactive); in the assay on Malme-3M, > 100 µM (inactive); with RXF 393 it was 45.6 µM (inactive); with HT-29, > 100 µM (inactive); with UACC-257, > 100 µM (inactive). In addition, the GI50 with SK-MEL-28 is > 100 µM (inactive); with SF-295 it was 92.7 µM (inactive); in the assay on HOP-92 it was 44 µM (inactive); in the assay on IGROV-1, > 100 µM (inactive).

For `CNC(=O)CNC(=O)CCC(=O)OC`, the GI50 with A498, in the assay on M14, in the assay with 786-0, in the assay with MDA-MB-231, in the assay on RXF 393 and with MCF7 was > 100 µM (inactive) each time. In addition, the GI50 in the assay with HT-29, in the assay on SK-MEL-28, in the assay with SF-295, in the assay on NCI-H460 and with NCI/ADR-RES was > 100 µM (inactive) in each case.

In the case of `Oc1c(Cl)c(Cl)c(O)c(CCNc2nccs2)c1Cl`, the GI50 in the assay on HL-60 was 6.84 µM (inactive); in the assay on SNB-75, 20.5 µM (inactive); in the assay on M14, 15.7 µM (inactive); with CCRF-CEM it was 3.74 µM (inactive); in the assay on 786-0, 16.9 µM (inactive); in the assay on Malme-3M, 27.4 µM (inactive). Also, the GI50 in the assay with MDA-MB-231 was 0.119 µM (active); in the assay on RXF 393, 7.23 µM (inactive); with MCF7, 2.41 µM (inactive); in the assay with HT-29, 17.9 µM (inactive); in the assay on UACC-257, 20 µM (inactive); in the assay on SK-MEL-28, 20.5 µM (inactive). For the same compound, the GI50 with SF-295 was 19.1 µM (inactive); in the assay on HOP-92, 32.4 µM (inactive); with IGROV-1, 3.27 µM (inactive); in the assay on NCI-H460 it was 20.8 µM (inactive); in the assay with NCI/ADR-RES it was 19.6 µM (inactive).

Consider `Cc1nc(C(N)=O)c(N)n1CCN1CCN(C(=O)CCCCCCCCCCNC2NC=Nc3[nH]cnc32)CC1` (configuration not stated), for which the GI50 with HL-60 was 15.2 µM (inactive); in the assay with A498 it was > 100 µM (inactive); in the assay on M14, 25.7 µM (inactive); in the assay on CCRF-CEM, 13.8 µM (inactive); in the assay with 786-0 it was > 100 µM (inactive); with Malme-3M it was 31.2 µM (inactive). Further, the GI50 in the assay on HT-29 was > 100 µM (inactive); with UACC-257, 16.3 µM (inactive); in the assay with SK-MEL-28, 22 µM (inactive); in the assay on SF-295 it was 41.1 µM (inactive); in the assay on HOP-92, 16.3 µM (inactive); in the assay on IGROV-1, 52.6 µM (inactive). Also, the GI50 with NCI-H460 was 32.7 µM (inactive).

For `O=[N+]([O-])/C(C(Cl)=C(Cl)Cl)=C(\N1CCOCC1)n1nnc2ccccc21`, the GI50 in the assay on A498 is 16.9 µM (inactive); in the assay with SNB-75, 17.5 µM (inactive); in the assay with M14 it was 17.2 µM (inactive); in the assay with 786-0 it was 22 µM (inactive); in the assay with Malme-3M, 18.4 µM (inactive); in the assay on MDA-MB-231 it was 17.5 µM (inactive). Also, the GI50 with MCF7 is 19.7 µM (inactive); in the assay on UACC-257, 20.7 µM (inactive); with SK-MEL-28, 22.5 µM (inactive); in the assay with SF-295 it was 17.7 µM (inactive); in the assay with HOP-92, 18.3 µM (inactive); in the assay with NCI-H460, 19.4 µM (inactive). Also, the GI50 with NCI/ADR-RES is 25.9 µM (inactive).

`Cc1c(N2CCN(C)CC2)nc2ccc(Cl)cc2c1-c1ccccc1`: the GI50 is 12.7 µM (inactive) in the assay with HL-60; 12.2 µM (inactive) with A498; 16.7 µM (inactive) with SNB-75; 18.5 µM (inactive) in the assay on M14; 17.5 µM (inactive) with CCRF-CEM; 14.4 µM (inactive) with 786-0. For the same compound, the GI50 in the assay with Malme-3M is 16.9 µM (inactive); in the assay with RXF 393, 15.9 µM (inactive); in the assay with HT-29, 14.3 µM (inactive); in the assay with UACC-257 it was 17.9 µM (inactive); with SK-MEL-28 it was 18 µM (inactive); in the assay with SF-295, 17.4 µM (inactive). The GI50 in the assay with NCI-H460 was 17.5 µM (inactive).
